According to paper PMC6521598, “Identification of GLPG/ABBV-2737, a Novel Class of Corrector, Which Exerts Functional Synergy With Other CFTR Modulators” (Frontiers in Pharmacology, 2019):

Tests used:
[1] = biological target: T1, wild type CFTR (Homo sapiens, UniProt P13569); assay: CFTR activity in normal HBE cells (NHBE); format: cell-based; set-up: University of North Carolina; host or cells: primary normal human bronchial epithelial cells; conditions: forskolin 0.1 or 0.3 μM, potentiator GLPG2451 10 μM added afterwards
T1 sequence (P13569 whole entry): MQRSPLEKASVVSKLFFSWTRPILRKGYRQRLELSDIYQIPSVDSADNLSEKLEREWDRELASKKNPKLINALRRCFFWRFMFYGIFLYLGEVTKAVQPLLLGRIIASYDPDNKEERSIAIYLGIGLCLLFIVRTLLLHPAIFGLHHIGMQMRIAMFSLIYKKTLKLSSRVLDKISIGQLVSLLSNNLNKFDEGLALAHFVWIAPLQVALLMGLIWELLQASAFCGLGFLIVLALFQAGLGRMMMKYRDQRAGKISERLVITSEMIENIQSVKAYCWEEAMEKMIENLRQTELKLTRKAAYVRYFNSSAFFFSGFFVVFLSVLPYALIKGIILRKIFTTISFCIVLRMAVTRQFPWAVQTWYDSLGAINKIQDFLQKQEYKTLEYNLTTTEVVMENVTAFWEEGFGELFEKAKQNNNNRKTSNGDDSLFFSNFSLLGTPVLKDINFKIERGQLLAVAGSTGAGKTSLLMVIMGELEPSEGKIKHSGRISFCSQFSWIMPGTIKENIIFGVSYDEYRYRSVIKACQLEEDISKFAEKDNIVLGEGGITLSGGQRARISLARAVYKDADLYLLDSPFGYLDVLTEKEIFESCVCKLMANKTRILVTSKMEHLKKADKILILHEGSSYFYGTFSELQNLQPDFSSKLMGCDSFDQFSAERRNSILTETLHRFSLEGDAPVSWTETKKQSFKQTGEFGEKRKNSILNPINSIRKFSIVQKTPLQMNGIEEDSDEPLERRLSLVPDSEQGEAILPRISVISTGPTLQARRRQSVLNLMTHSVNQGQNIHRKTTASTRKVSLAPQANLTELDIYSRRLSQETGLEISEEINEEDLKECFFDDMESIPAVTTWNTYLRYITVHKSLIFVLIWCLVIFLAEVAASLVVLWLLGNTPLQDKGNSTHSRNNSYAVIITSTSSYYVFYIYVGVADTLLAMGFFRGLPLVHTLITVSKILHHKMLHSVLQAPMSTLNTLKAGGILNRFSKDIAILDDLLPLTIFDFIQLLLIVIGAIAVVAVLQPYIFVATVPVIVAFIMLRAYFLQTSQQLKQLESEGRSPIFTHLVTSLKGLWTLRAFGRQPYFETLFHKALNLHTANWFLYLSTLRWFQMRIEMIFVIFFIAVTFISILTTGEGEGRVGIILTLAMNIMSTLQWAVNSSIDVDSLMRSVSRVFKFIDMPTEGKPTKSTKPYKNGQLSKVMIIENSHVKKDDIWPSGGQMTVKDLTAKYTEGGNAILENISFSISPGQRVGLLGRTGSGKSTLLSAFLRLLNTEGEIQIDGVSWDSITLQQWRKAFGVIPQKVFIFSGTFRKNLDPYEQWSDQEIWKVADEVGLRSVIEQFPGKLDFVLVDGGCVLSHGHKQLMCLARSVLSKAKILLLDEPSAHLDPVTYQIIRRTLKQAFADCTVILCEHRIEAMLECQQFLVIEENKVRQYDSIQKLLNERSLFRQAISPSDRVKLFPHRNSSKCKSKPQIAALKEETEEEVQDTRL
Experimental: Bronchial epithelial cells isolated from transplanted lungs from normal (wt CFTR) or CF patients homozygous for the F508del CFTR mutation, were obtained from McGill University (Montreal, QC, Canada) and University of North Carolina (Chapel Hill, NC, United States). Cells were isolated from lungs obtained from donors undergoing a planned transplantation. These primary cells were cultured directly on type IV collagen-coated polycarbonate Transwell supports with a diameter of 6.5 mm and pore size of 0.4 μm (Costar, #3397) for 18–25 days in air liquid (ali) interface essentially as previously described ([Fulcher et al., 2005]) for TECC. A similar cell culture protocol was used for Ussing chambers but using type IV collagen-coated polycarbonate Millicell supports with a diameter of 12 mm and a pore size of […] (Millicell, PIHP01250).
Corrector and/or potentiator compound(s) were added on the basolateral side of the HBEs for 24 h to rescue F508del CFTR. […] The transepithelial potential (PD) and transepithelial resistance (Rt) were measured in an open circuit and transformed to Ieq using Ohm’s law. […]
FIGURE 6 Effects of GLPG2737 on normal human bronchial epithelial cells (NHBE) and HEK cells expressing WT CFTR. […] (D) NHBE treated for 24 h with 1 μM GLPG2737 or DMSO (control), CFTR channel was activated with either 0.1 μM or 0.3μM forskolin, measured Isc shown in gray. […]

[2] = biological target: T1, wild type CFTR; assay: YFP halide assay, HEK293 cells transfected with wild type CFTR; format: cell-based; set-up: expressed in transfected cells; host or cells: HEK293
Experimental: HEK293 cells were transfected with 10–80 ng of plasmid encoding F508del, E92K, P67L, V232D, F508del/G550E, F508del/I539T or wild type CFTR and 20 ng of plasmid encoding YFP (H148Q/I152L/F47L) using jetPEI (Polyplus transfection). Directly after transfection, cells were seeded in black 96-well plates coated with poly-D-lysine at a density of 70,000 cells per well. The next day, cells were treated with corrector(s) for 24 h. After this incubation period, cells were washed twice with DPBS with Ca^2+ and Mg^2+. […] YFP fluorescence was measured using an EnVision plate reader (PerkinElmer). […] The capacity of potentiators to increase CFTR channel function was expressed as 1-(fluorescence 7 s after NaI addition (F)/fluorescence before NaI addition (F0)). […]
Due to the lack of any forskolin activated current upon correction of F508del carrying cells with GLPG2737, we wondered whether GLPG2737 would have an effect on wild type CFTR activity. […] Similar to the observations in the 24 h incubation experiment, a decrease in wild type channel activity was measured with increasing amounts of GLPG2737 (Figure 6B). Since the YFP halide assay was performed using an overexpressing cell system that might not be physiologically relevant, GLPG2737 was also evaluated on normal HBE cells.

## COC1CCN(C2CCN(c3cc(C(=O)NS(=O)(=O)N(C)C)nc4c3c(C3CCC3)nn4-c3ccc(F)cc3)CC2)CC1 [GLPG2737]
[1]
  CFTR activity: reduced CFTR activity which could be rescued upon addition of a potentiator
[2]; 24 h incubation with a dose range, 100 nM FSK
  wild type CFTR activity: dose dependent decrease
[2]; acute addition together with forskolin (100 nM)
  wild type channel activity: decrease
